Legend:
P. aeruginosa PAO1 = assay: MIC, broth dilution, P. aeruginosa PAO1; format: cell-based; conditions: mean (n = 3); for MIC: Pseudomonas aeruginosa
Description: (§1) The susceptibility of bacterial strains S. aureus (ATCC 25923), E. coli (ATCC 25922), and P. aeruginosa (ATCC 27853 or PAO1) to antibiotics and compounds was determined using reported protocols. Additional antimicrobial evaluation against MRSA (ATCC 43300), Klebsiella pneumoniae (ATCC 700603), A. baumannii (ATCC 19606), Candida albicans (ATCC 90028), and Cryptococcus neoformans (ATCC 208821) was undertaken at the Community for Open Antimicrobial Drug Discovery at The University of Queensland (Australia) according to their standard protocols as reported previously. […]
(§2) 2.3. Antimicrobial Assays
(§3) The susceptibility of bacterial strains S. aureus (ATCC 25923), E. coli (ATCC 25922), and P. aeruginosa (ATCC 27853 or PAO1) to antibiotics and compounds was determined in microplates using the standard broth dilution method in accordance with the recommendations of the Comité de l’AntibioGramme de la Société Française de Microbiologie (CA-SFM). Briefly, the minimal inhibitory concentrations (MICs) were determined with an inoculum of 10^5 CFU in 200 µL of Mueller–Hinton broth (MHB) containing two-fold serial dilutions of each drug. The MIC was defined as the lowest […]
(§4) determine all MICs, the measurements were independently repeated in triplicate. Additional antimicrobial evaluation against MRSA (ATCC 43300), Klebsiella pneumoniae (ATCC 700603), A. baumannii (ATCC 19606), Candida albicans (ATCC 90028), and Cryptococcus neoformans (ATCC 208821) was undertaken at the Community for Open Antimicrobial Drug Discovery at The University of Queensland (Australia) according to their standard protocols as reported previously. […]
(§5) For C. neoformans, resazurin was added at 0.006% final concentration to each well and incubated for a further 3 h before MICs were determined by measuring […]
(§6) Colistin and vancomycin were used as positive bacterial inhibitor standards for Gram-negative and Gram-positive bacteria, respectively. Fluconazole was used as a positive fungal inhibitor standard for C. albicans and C. neoformans. The antibiotics were provided in […], with 3 above and 3 below its MIC value, and plated into the first 8 wells of column 23 of the 384-well NBS plates. The quality control (QC) of the assays was determined by the antimicrobial controls and the Z'-factor (using positive and negative controls). Each plate was deemed to fulfil the quality criteria (pass QC) if the Z'- […]
(§7) inhibition at their highest concentration, and no growth inhibition at their lowest concentration.
(§8) 2.4. Determination of the MICs of Antibiotics in the Presence of Synergizing Compounds

[1] = tested on: C. neoformans ATCC 208821; assay: MIC, CO-ADD antifungal assay, C. neoformans; format: cell-based, Cryptococcus neoformans; conditions: for MIC: Cryptococcus neoformans, ATCC208821, mean (n = 2)
Description: as §1, §2
(§9) The susceptibility of bacterial strains S. aureus (ATCC 25923), E. coli (ATCC 25922), and P. […]
baumannii (ATCC 19606), Candida albicans (ATCC 90028), and Cryptococcus neoformans (ATCC 208821) was undertaken at the Community for Open Antimicrobial Drug Discovery at The University of Queensland (Australia) according to their standard protocols as reported previously. […]
For the antifungal assay, fungi strains were cultured for 3 days on YPD agar at 30 °C. A yeast suspension of 1 × 106 to 5 × 10^6 CFU/mL was prepared from five colonies. These stock suspensions were diluted with yeast nitrogen base (YNB) (Becton Dickinson, 233520) broth to a final concentration of 2.5 × 10^3 CFU/mL. The compounds were serially diluted 2-fold across the wells of 96-well plates (Corning 3641, non-binding surface), with compound concentrations ranging from 0.015 to 64 µg/mL and final volumes of 50 µL, plated in duplicate. Then, 50 µL of the fungi suspension that was previously prepared in YNB broth to the final concentration of 2.5 × 10^3 CFU/mL was added to each well of the compound-containing plates, giving a final compound concentration range of 0.008 to 32 µg/mL. Plates were covered and incubated at 35 °C for 36 h without shaking. C. albicans MICs were determined by measuring the absorbance at OD530. For C. neoformans, resazurin was added at 0.006% final concentration to each well and incubated for a further 3 h before MICs were determined by measuring […]
as §6, §7, §8

S. aureus ATCC 25923 = assay: MIC, broth dilution, S. aureus; format: cell-based; conditions: Staphylococcus aureus, ATCC25923, mean (n = 3)
Description: as §1, §2, §3, §4, §5, §6, §7, §8

human red blood cells = assay: Hemolytic assay; format: cell-based; conditions: mean (n = 2)
Description: Hemolysis assays were conducted using reported protocols (see Supplementary File). […]
Human whole blood was washed three times with three volumes of 0.9% NaCl and then resuspended in the same solution to a concentration of 0.5 x 10^8 cells/mL, as determined by the manual cell count in a Neubauer hemocytometer. The washed cells were then added to the 384-well compound-containing plates for a final volume of 50 µL. After a 10 min shake on a plate shaker, the plates were then incubated for 1 h at 37 °C. After incubation, the plates were centrifuged at 1,000g for 10 min to pellet cells and debris; 25 µL of the supernatant was then transferred to a polystyrene 384-well assay plate. Hemolysis was determined by measuring the supernatant absorbance at […] (OD405). The absorbance was measured using a Tecan M1000 Pro monochromator plate reader. HC10 and HC50 (concentration at 10% and 50% hemolysis, respectively) were calculated by curve fitting the inhibition values vs. log (concentration) using a sigmoidal dose–response function with variable fitting values for the top, bottom, and slope. […]

[2] = tested on: K. pneumoniae ATCC 700603; assay: MIC, CO-ADD broth microdilution, K. pneumoniae; format: cell-based, Klebsiella pneumoniae; conditions: for MIC: Klebsiella pneumoniae, ATCC700603, mean (n = 2)
Description: as §1, §2, §9
baumannii (ATCC 19606), Candida albicans (ATCC 90028), and Cryptococcus neoformans (ATCC 208821) was undertaken at the Community for Open Antimicrobial Drug Discovery at The University of Queensland (Australia) according to their standard protocols as reported previously. For antimicrobial assays, the tested strains were cultured in either Luria broth (LB) (In Vitro Technologies, USB75852), nutrient broth (NB) (Becton Dickson, 234000), or MHB at 37 °C overnight. A sample of culture was then diluted 40-fold in fresh MHB and incubated at 37 °C for 1.5−2 h. The compounds were serially diluted 2-fold across the wells of 96-well plates (Corning 3641, non-binding surface), with compound concentrations ranging from 0.015 to 64 µg/ mL, and plated in duplicate. The resultant mid-log phase cultures were diluted to the final concentration of 1 × 10^6 CFU/mL; then, 50 µL was added to each well of the compound-containing plates, giving a final compound concentration range of 0.008 to 32 µg/mL and a cell density of 5 × 10^5 CFU/mL. All plates were then covered and incubated at 37 °C for 18 h. Resazurin was added at 0.001% final concentration to each well and incubated for 2 h before MICs […]
as §5, §6, §7, §8

Row | Compound | MIC (P. aeruginosa PAO1) [µM] | MIC P.a. (P. aeruginosa PAO1) | MIC [1] [µM] | MIC C.n. ([1]; mean (n = 2)) | MIC (S. aureus ATCC 25923) [µM] | Hemolysis (HC10), concentration of compound at 10% hemolytic activity (human red blood cells) [µM] | MIC [2] [µM] | MIC K.p. ([2]; mean (n = 2))
1 | C=C[C@]1(C)C[C@@H](OC(=O)CSCCN(CC)CC)[C@]2(C)[C@H](C)CC[C@]3(CCC(=O)[C@H]32)[C@@H](C)[C@@H]1O [Compound 2, Tiamulin, reference compound] | 800 | no activity | > 64.8 | no activity | 3.12 | >64.8 | > 64.8 | no activity
2 | C=C[C@]1(C)C[C@@H](OC(=O)CNCCCNCCCCNCCCNCC(=O)O[C@@H]2C[C@@](C)(C=C)[C@@H](O)[C@H](C)[C@]34CCC(=O)[C@H]3[C@@]2(C)[C@H](C)CC4)[C@]2(C)[C@H](C)CC[C@]3(CCC(=O)[C@H]32)[C@@H](C)[C@@H]1O.O=C(O)C(F)(F)F.O=C(O)C(F)(F)F.O=C(O)C(F)(F)F.O=C(O)C(F)(F)F [Compound 9a, N^1,N^1′-(Butane-1,4-diyl)bis(N^3-(2-(((3aR,4R,5R,7S,8S,9R,9aS,12R)-8-hydroxy-4,7,9,12-tetramethyl-3-oxo-7-vinyldecahydro-4,9a-propanocyclopenta [8]annulen-5-yl)oxy)-2-oxoethyl)propane-1,3-diaminium) 2,2,2-trifluoroacetate] | 72.5 |  | 0.72 |  | 18.1 | >23.2 | > 23.2 | 
3 | C=C[C@]1(C)C[C@@H](OC(=O)CNCCCNCCCCCCNCCCNCC(=O)O[C@@H]2C[C@@](C)(C=C)[C@@H](O)[C@H](C)[C@]34CCC(=O)[C@H]3[C@@]2(C)[C@H](C)CC4)[C@]2(C)[C@H](C)CC[C@]3(CCC(=O)[C@H]32)[C@@H](C)[C@@H]1O.O=C(O)C(F)(F)F.O=C(O)C(F)(F)F.O=C(O)C(F)(F)F.O=C(O)C(F)(F)F [Compound 9b, N^1,N^1′-(Hexane-1,6-diyl)bis(N^3-(2-(((3aR,4R,5R,7S,8S,9R,9aS,12R)-8-hydroxy-4,7,9,12-tetramethyl-3-oxo-7-vinyldecahydro-4,9a-propanocyclopenta [8]annulen-5-yl)oxy)-2-oxoethyl)propane-1,3-diaminium) 2,2,2-trifluoroacetate] | 142 |  | ≤ 0.18 |  | 17.8 | >22.7 | > 22.7 | 
4 | C=C[C@]1(C)C[C@@H](OC(=O)CNCCCNCCCCCCCNCCCNCC(=O)O[C@@H]2C[C@@](C)(C=C)[C@@H](O)[C@H](C)[C@]34CCC(=O)[C@H]3[C@@]2(C)[C@H](C)CC4)[C@]2(C)[C@H](C)CC[C@]3(CCC(=O)[C@H]32)[C@@H](C)[C@@H]1O.O=C(O)C(F)(F)F.O=C(O)C(F)(F)F.O=C(O)C(F)(F)F.O=C(O)C(F)(F)F [Compound 9c, N^1,N^1′-(Heptane-1,7-diyl)bis(N^3-(2-(((3aR,4R,5R,7S,8S,9R,9aS,12R)-8-hydroxy-4,7,9,12-tetramethyl-3-oxo-7-vinyldecahydro-4,9a-propanocyclopenta [8]annulen-5-yl)oxy)-2-oxoethyl)propane-1,3-diaminium) 2,2,2-trifluoroacetate] | > 141 |  | ≤ 0.18 |  | 17.6 | >22.5 | > 22.5 | 
5 | C=C[C@]1(C)C[C@@H](OC(=O)CNCCCNCCCCCCCCNCCCNCC(=O)O[C@@H]2C[C@@](C)(C=C)[C@@H](O)[C@H](C)[C@]34CCC(=O)[C@H]3[C@@]2(C)[C@H](C)CC4)[C@]2(C)[C@H](C)CC[C@]3(CCC(=O)[C@H]32)[C@@H](C)[C@@H]1O.O=C(O)C(F)(F)F.O=C(O)C(F)(F)F.O=C(O)C(F)(F)F.O=C(O)C(F)(F)F [Compound 9d, N^1,N^1′-(Octane-1,8-diyl)bis(N^3-(2-(((3aR,4R,5R,7S,8S,9R,9aS,12R)-8-hydroxy-4,7,9,12-tetramethyl-3-oxo-7-vinyldecahydro-4,9a-propanocyclopenta [8]annulen-5-yl)oxy)-2-oxoethyl)propane-1,3-diaminium) 2,2,2-trifluoroacetate] | > 139 |  | ≤ 0.17 |  | 34.8 | >22.3 | > 22.3 | 
6 | C=C[C@]1(C)C[C@@H](OC(=O)CNCCCNCCCCCCCCCCNCCCNCC(=O)O[C@@H]2C[C@@](C)(C=C)[C@@H](O)[C@H](C)[C@]34CCC(=O)[C@H]3[C@@]2(C)[C@H](C)CC4)[C@]2(C)[C@H](C)CC[C@]3(CCC(=O)[C@H]32)[C@@H](C)[C@@H]1O.O=C(O)C(F)(F)F.O=C(O)C(F)(F)F.O=C(O)C(F)(F)F.O=C(O)C(F)(F)F [Compound 9e, N^1,N^1′-(Decane-1,10-diyl)bis(N^3-(2-(((3aR,4R,5R,7S,8S,9R,9aS,12R)-8-hydroxy-4,7,9,12-tetramethyl-3-oxo-7-vinyldecahydro-4,9a-propanocyclopenta [8]annulen-5-yl)oxy)-2-oxoethyl)propane-1,3-diaminium) 2,2,2-trifluoroacetate] | > 88 |  | ≤ 0.17 |  | 4.27 | >21.9 | > 21.9 | 
